Test results published in ChEMBL document CHEMBL1143190, “Synthesis and structure-activity relationships of soluble 8-substituted 4-(2-chlorophenyl)-9-hydroxypyrrolo[3,4-c]carbazole-1,3(2H,6H)-diones as inhibitors of the Wee1 and Chk1 checkpoint kinases” (Bioorg Med Chem Lett, 2008).

Experiments:
[1] = physchem
Description: Dissociation constant, pKa of the compound

[2] = molecular target: Wee1-like protein kinase (Homo sapiens, UniProt P30291)
[3] = tested on: HT-29; assay: cells; format: cell-based; conditions: Homo sapiens
Description: Inhibition of human Cdc2/cyclin B-mediated histone H1 kinase phosphorylation in HT29 cells

[4] = molecular target: Cyclin-dependent kinase 1 (Homo sapiens, UniProt P06493); format: cell-based; conditions: ht-29
Description: Inhibition of human Cdc2 kinase PY15 phosphorylation in HT29 cells by Western blot

[5] = tested on: HT-29; assay: cells; format: functional, cell-based; conditions: Homo sapiens, HT-29, 72 h
Description: Cytotoxicity against human HT29 cells after 72 hrs

[6] = molecular target: T1, Serine/threonine-protein kinase Chk1 (Homo sapiens, UniProt O14757)
T1 sequence (O14757 whole entry): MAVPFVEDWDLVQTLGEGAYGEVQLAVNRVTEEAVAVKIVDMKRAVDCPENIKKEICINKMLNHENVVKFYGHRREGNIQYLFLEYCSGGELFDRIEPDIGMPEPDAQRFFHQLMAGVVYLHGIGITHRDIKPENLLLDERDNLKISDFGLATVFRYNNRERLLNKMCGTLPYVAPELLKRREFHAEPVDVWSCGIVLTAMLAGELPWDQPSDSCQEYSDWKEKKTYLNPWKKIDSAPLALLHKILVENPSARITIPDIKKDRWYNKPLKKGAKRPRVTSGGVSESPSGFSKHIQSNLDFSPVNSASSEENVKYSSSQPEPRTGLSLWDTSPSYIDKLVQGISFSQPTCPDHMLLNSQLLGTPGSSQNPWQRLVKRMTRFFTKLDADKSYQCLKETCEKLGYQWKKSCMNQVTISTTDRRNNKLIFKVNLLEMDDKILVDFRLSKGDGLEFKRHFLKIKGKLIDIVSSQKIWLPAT

[7] = physchem; conditions: buffer
Description: Aqueous solubility in water

Cyclin-dependent kinase 1, sequence (P06493 whole entry): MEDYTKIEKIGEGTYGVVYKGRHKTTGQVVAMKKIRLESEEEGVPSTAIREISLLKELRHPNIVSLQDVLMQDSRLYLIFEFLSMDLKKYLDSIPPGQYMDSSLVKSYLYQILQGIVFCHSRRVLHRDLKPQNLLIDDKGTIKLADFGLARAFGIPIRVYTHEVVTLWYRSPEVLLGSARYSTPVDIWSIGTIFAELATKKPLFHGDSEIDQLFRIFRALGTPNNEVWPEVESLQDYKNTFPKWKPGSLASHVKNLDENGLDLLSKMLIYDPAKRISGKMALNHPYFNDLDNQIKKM
Wee1-like protein kinase, sequence (P30291 whole entry): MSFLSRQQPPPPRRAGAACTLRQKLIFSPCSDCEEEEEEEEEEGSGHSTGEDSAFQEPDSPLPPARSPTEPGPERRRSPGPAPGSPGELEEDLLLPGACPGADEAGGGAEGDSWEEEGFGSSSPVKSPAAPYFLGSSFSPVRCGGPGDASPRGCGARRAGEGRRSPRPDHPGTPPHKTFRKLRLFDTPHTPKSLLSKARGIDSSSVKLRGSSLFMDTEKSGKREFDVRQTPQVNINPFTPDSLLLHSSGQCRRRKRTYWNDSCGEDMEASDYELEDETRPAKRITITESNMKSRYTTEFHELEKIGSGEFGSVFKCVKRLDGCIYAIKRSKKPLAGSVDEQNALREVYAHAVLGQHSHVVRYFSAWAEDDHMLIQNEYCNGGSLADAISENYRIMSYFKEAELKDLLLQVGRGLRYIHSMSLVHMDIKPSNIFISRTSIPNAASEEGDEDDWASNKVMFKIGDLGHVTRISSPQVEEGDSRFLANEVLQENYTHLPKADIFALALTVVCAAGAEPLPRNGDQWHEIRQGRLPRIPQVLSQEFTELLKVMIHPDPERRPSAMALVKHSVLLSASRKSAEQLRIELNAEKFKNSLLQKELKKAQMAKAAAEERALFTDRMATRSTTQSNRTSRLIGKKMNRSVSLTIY

Compound | pKa [1] | IC50 [2] | IC50 [3] | IC50 [4] | IC50 [5] | IC50 [6] | solubility [7]
CN(C)CCCCc1cc2c(cc1O)c1c3c(c(-c4ccccc4Cl)cc1n2C)C(=O)NC3=O | 9.5 | 34 nM | – | – | – | – | –
Cn1c2cc(OCCCN3CCCC3)c(O)cc2c2c3c(c(-c4ccccc4Cl)cc21)C(=O)NC3=O | 10.5 | – | 230 nM | 30 nM | 310 nM | – | –
O=C1NC(=O)c2c1c(-c1ccccc1Cl)cc1c2c2cc(O)c(CCCCN3CCCC3)cc2n1CCO | 10.5 | 24 nM | – | – | – | – | –
O=C1NC(=O)c2c1c(-c1ccccc1Cl)cc1[nH]c3cc(OCCCN4CCOCC4)c(O)cc3c21 | 7.8 | 26 nM | – | – | – | – | –
Cn1c2cc(S(=O)(=O)CCCN3CCCC3)c(O)cc2c2c3c(c(-c4ccccc4Cl)cc21)C(=O)NC3=O | 10.5 | 160 nM | – | – | – | – | –
O=C1NC(=O)c2c1c(-c1ccccc1Cl)cc1c2c2cc(O)c(CCCCN3CCOCC3)cc2n1CCO | 7.8 | 19 nM | – | – | – | – | –
O=C1NC(=O)c2c1c(-c1ccccc1Cl)cc1c2c2cc(O)c(OCCCN3CCCC3)cc2n1CCO | 10.5 | 24 nM | 860 nM | 30 nM | – | – | –
Cn1c2cc([S+]([O-])CCCN3CCCC3)c(O)cc2c2c3c(c(-c4ccccc4Cl)cc21)C(=O)NC3=O (configuration not stated) | 10.5 | 33 nM | – | – | – | 7 nM | –
O=C1NC(=O)c2c1c(-c1ccccc1Cl)cc1[nH]c3cc(OCCCN4CCCC4)c(O)cc3c21 | 10.5 | 35 nM | – | – | – | – | –
Cn1c2cc(CCCCN3CCCC3)c(O)cc2c2c3c(c(-c4ccccc4Cl)cc21)C(=O)NC3=O | 10.5 | 36 nM | – | – | – | – | –
O=C1NC(=O)c2c1c(-c1ccccc1Cl)cc1c2c2cc(O)c(OCCCN3CCOCC3)cc2n1CCO | 7.8 | 15 nM | 530 nM | 250 nM | – | – | –
Cn1c2cc(C(=O)NCCN3CCCC3)c(O)cc2c2c3c(c(-c4ccccc4Cl)cc21)C(=O)NC3=O | 10.5 | – | – | – | – | – | –
Cn1c2cc(OCCCN3CCOCC3)c(O)cc2c2c3c(c(-c4ccccc4Cl)cc21)C(=O)NC3=O | 7.8 | 57 nM | – | – | – | – | –
CN(C)CCCOc1cc2[nH]c3cc(-c4ccccc4Cl)c4c(c3c2cc1O)C(=O)NC4=O | 9.5 | 26 nM | – | – | – | – | –
O=C1NC(=O)c2c1c(-c1ccccc1Cl)cc1[nH]c3cc(CCCCN4CCCC4)c(O)cc3c21 | 10.5 | 50 nM | 780 nM | 200 nM | – | – | –
CN(C)CCCCc1cc2[nH]c3cc(-c4ccccc4Cl)c4c(c3c2cc1O)C(=O)NC4=O | 9.5 | 49 nM | 880 nM | 250 nM | – | – | –
CN(C)CCCOc1cc2c(cc1O)c1c3c(c(-c4ccccc4Cl)cc1n2CCO)C(=O)NC3=O | 9.5 | 18 nM | 750 nM | 250 nM | – | – | –
Cn1c2cc(S(=O)(=O)NCCN3CCCC3)c(O)cc2c2c3c(c(-c4ccccc4Cl)cc21)C(=O)NC3=O | 10.5 | 46 nM | – | – | – | – | –
O=C1NC(=O)c2c1c(-c1ccccc1Cl)cc1[nH]c3cc(CCCCN4CCOCC4)c(O)cc3c21 | 7.8 | 37 nM | 1230 nM | 250 nM | – | – | –
Cn1c2cc(SCCCN3CCCC3)c(O)cc2c2c3c(c(-c4ccccc4Cl)cc21)C(=O)NC3=O | 10.5 | 20 nM | – | – | – | – | –
CN(C)CCCOc1cc2c(cc1O)c1c3c(c(-c4ccccc4Cl)cc1n2C)C(=O)NC3=O | 9.5 | – | – | 10 nM | 230 nM | – | –
O=C1NC(=O)c2c1c(-c1ccccc1Cl)cc1c2c2cc(O)ccc2n1CCCO | – | – | – | 250 nM | – | – | < 3 µg/mL
Cn1c2cc(CCCCN3CCOCC3)c(O)cc2c2c3c(c(-c4ccccc4Cl)cc21)C(=O)NC3=O | 7.8 | 30 nM | – | – | – | – | –
CN(C)CCCOc1cc2c(cc1O)c1c3c(c(-c4ccccc4Cl)cc1n2C)C(=O)NC3=O.Cl | – | – | – | – | – | – | 2200 µg/mL
